# In US11634425B2, “Pharmaceutical compounds” (priority 2019, dated 2023):
# pEC50: −log10 of the molar value. Where two headings read alike, the source gives them in different places.
# Columns and labels:
# Cell cytotoxicity (CC50) = type: cell-based; conditions: human; mean of at least two experiments
# Procedure, shortened: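 Values are means of ≥2 independent runs, rounded to whole units, from 4-parameter variable-slope curve fits. Toxicity measured in Hep-G2 cells run alongside RSV plaque-reduction assays.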
# RSV A2 = assay: RSV plaque reduction assay; type: cell-based, respiratory syncytial virus (RSV); conditions: human respiratory syncytial virus, HepG2, Hep-G2 cells, mean of at least two experiments
# Procedure, shortened: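 RSV A2 at 100 PFU/well was premixed with eight compound dilutions and added to confluent Hep-G2 monolayers for 2 h at 37 °C. Cells were then kept 2 days under a DMEM/2% FBS/0.8% CMC overlay containing compound. Immunostained plaques were counted relative to virus controls, and EC50 came from 4-parameter fits, averaged over at least two experiments.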
# in vitro = in vitro ADME; conditions: microsomes, pH 7.4, 1 μM compound, 0.5 mg/mL protein, read-out: Liver Microsomal Stability t1/2
# Procedure: Compounds were subjected to the following assays to investigate liver microsomal stability and hepatocyte stability.
# Microsomal Incubation: Experimental Procedure
# Pooled liver microsomes were purchased from a reputable commercial supplier and stored at −80° C. prior to use. Microsomes (final protein concentration 0.5 mg/mL), 0.1 M phosphate buffer pH 7.4 and test compound (final substrate concentration 1 μM; final DMSO concentration 0.25%) were pre-incubated at 37° C. prior to the addition of NADPH (final concentration 1 mM) to initiate the reaction. The final incubation volume was 50 μL. A control incubation was included for each compound tested where 0.1 M phosphate buffer pH 7.4 was added instead of NADPH (minus NADPH). Two control compounds were included with each species. All incubations were performed singularly for each test compound. Each compound was incubated for 0, 5, 15, 30 and 45 min. The control (minus NADPH) was incubated for 45 min only. The reactions were stopped by transferring incubate into acetonitrile at the appropriate time points, in a 1:3 ratio. The termination plates are centrifuged at 3,000 rpm for 20 min at 4° C. to precipitate the protein. Following protein precipitation, the sample supernatants were combined in cassettes of up to 4 compounds, internal standard added, and samples analysed by LC-MS/MS. From a plot of ln peak area ratio (compound peak area/internal standard peak area) against time, the gradient of the line was determined. Subsequently, half-life (t1/2) and intrinsic clearance (CLint) were calculated.
SMILES,CC50 (Cell cytotoxicity (CC50)),pEC50 (RSV A2),half-life at 1 μM (in vitro; dog),half-life at 1 μM (in vitro; human),half-life at 1 μM (in vitro; rat)
"O=C(N[C@H]1N=C(c2ccccc2)c2cccc(F)c2NC1=O)c1c(-c2cnc3[nH]ccc3c2)nn2cccnc12 [Example 75, N-[(3S)-9-Fluoro-2-oxo-5-phenyl-1,3-dihydro-1,4-benzodiazepin-3-yl]-2-(1H-pyrrolo[2,3-b]pyridin-5-yl)pyrazolo[1,5-a]pyrimidine-3-carboxamide]",> 25000 nM,7.36,1.45 h,11.3 h,0.833 h
"O=C(N[C@H]1N=C(c2ccccc2)c2ccccc2NC1=O)c1c(-c2ccc(F)cc2F)nc2cccnn12 [Example 88, 2-(2,4-Difluorophenyl)-N-[(3S)-2-oxo-5-phenyl-1,3-dihydro-1,4-benzodiazepin-3-yl]imidazo[1,2-b]pyridazine-3-carboxamide]",> 25000 nM,7.70,1.27 h,> 2.33 h,3.37 h
"Cc1ccc2nc(-c3ccncc3F)c(C(=O)N[C@H]3N=C(c4ccccc4)c4cccc(F)c4NC3=O)n2n1 [Example 100, N-[(3S)-9-fluoro-2-oxo-5-phenyl-1,3-dihydro-1,4-benzodiazepin-3-yl]-2-(3-fluoropyridin-4-yl)-6-methylimidazo[1,2-b]pyridazine-3-carboxamide]",> 25000 nM,7.33,1.37 h,15.1 h,0.457 h
"Cc1nn2cc(-c3ccoc3)cnc2c1C(=O)N[C@H]1N=C(c2ccccc2)c2cccc(F)c2NC1=O [Example 24, N-[(3S)-9-Fluoro-2-oxo-5-phenyl-1,3-dihydro-1,4-benzodiazepin-3-yl]-6-(furan-3-yl)-2-methylpyrazolo[1,5-a]pyrimidine-3-carboxamide]",> 25000 nM,6.98,1.98 h,> 2.33 h,0.427 h
"CNc1ccc(-c2nn3cccnc3c2C(=O)N[C@H]2N=C(c3ccccc3)c3ccccc3NC2=O)c(F)c1 [Example 16, 2-[2-Fluoro-4-(methylamino)phenyl]-N-[(3S)-2-oxo-5-phenyl-1,3-dihydro-1,4-benzodiazepin-3-yl]pyrazolo[1,5-a]pyrimidine-3-carboxamide]",> 25000 nM,7.74,0.657 h,1.5 h,0.652 h
"CN1CCN(c2ccc3nc(-c4ccccc4F)c(C(=O)N[C@H]4N=C(c5ccccc5)c5cccc(F)c5NC4=O)n3n2)CC1 [Example 95, N-[(3S)-9-fluoro-2-oxo-5-phenyl-1,3-dihydro-1,4-benzodiazepin-3-yl]-2-(2-fluorophenyl)-6-(4-methylpiperazin-1-yl)imidazo[1,2-b]pyridazine-3-carboxamide]",> 21100 nM,7.03,1.11 h,0.948 h,0.595 h
"[2H]C([2H])([2H])Oc1ccc2nc(-c3ccccc3)c(C(=O)N[C@H]3N=C(c4ccccc4)c4cccc(F)c4NC3=O)n2n1 [Example 114, N-[(3S)-9-fluoro-2-oxo-5-phenyl-1,3-dihydro-1,4-benzodiazepin-3-yl]-2-phenyl-6-(trideuteriomethoxy)imidazo[1,2-b]pyridazine-3-carboxamide]",> 25000 nM,7.41,5.5 h,4.1 h,2.03 h
"O=C(N[C@H]1N=C(c2ccccc2)c2ccccc2NC1=O)c1c(-c2ccccc2)nc2cccnn12 [Example 87, N-[(3S)-2-oxo-5-phenyl-1,3-dihydro-1,4-benzodiazepin-3-yl]-2-phenylimidazo[1,2-b]pyridazine-3-carboxamide]",> 25000 nM,7.28,1.12 h,68.8 h,1.43 h
"Cn1ncc2cc(-c3nn4cccnc4c3C(=O)N[C@H]3N=C(c4ccccc4)c4cccc(F)c4NC3=O)ccc21 [Example 63, N-[(3S)-9-fluoro-2-oxo-5-phenyl-1,3-dihydro-1,4-benzodiazepin-3-yl]-2-(1-methylindazol-5-yl)pyrazolo[1,5-a]pyrimidine-3-carboxamide]",> 25000 nM,7.18,2.53 h,1.88 h,3.78 h
"O=C(N[C@H]1N=C(c2ccccc2)c2ccccc2NC1=O)c1c(-c2cccc(F)c2F)nn2cccnc12 [Example 43, 2-(2,3-Difluorophenyl)-N-[(3S)-2-oxo-5-phenyl-1,3-dihydro-1,4-benzodiazepin-3-yl]pyrazolo[1,5-a]pyrimidine-3-carboxamide]",> 25000 nM,7.22,0.97 h,3.35 h,41.5 h
"O=C(N[C@H]1N=C(c2ccccc2)c2cccc(F)c2NC1=O)c1c(-c2ccc(F)cc2F)nn2cccnc12 [Example 5, 2-(2,4-Difluorophenyl)-N-[(3S)-9-fluoro-2-oxo-5-phenyl-1,3-dihydro-1,4-benzodiazepin-3-yl]pyrazolo[1,5-a]pyrimidine-3-carboxamide]",> 25000 nM,7.41,5.93 h,> 2.33 h,> 2.33 h
"O=C(N[C@H]1N=C(c2ccccc2)c2cccc(F)c2NC1=O)c1c(-c2ccccc2F)nc2ccc(Cl)nn12 [Example 116, 6-Chloro-N-[(3S)-9-fluoro-2-oxo-5-phenyl-1,3-dihydro-1,4-benzodiazepin-3-yl]-2-(2-fluorophenyl)imidazo[1,2-b]pyridazine-3-carboxamide]",> 25000 nM,7.48,> 2.33 h,> 2.33 h,0.957 h
"Cc1cnc2c(C(=O)N[C@H]3N=C(c4ccccc4)c4cccc(F)c4NC3=O)c(-c3ccccc3F)nn2c1 [Example 34, N-[(3S)-9-Fluoro-2-oxo-5-phenyl-1,3-dihydro-1,4-benzodiazepin-3-yl]-2-(2-fluorophenyl)-6-methylpyrazolo[1,5-a]pyrimidine-3-carboxamide]",> 25000 nM,7.64,1.44 h,> 2.33 h,1.08 h
"O=C(N[C@H]1N=C(c2ccccc2)c2cccc(F)c2NC1=O)c1c(-c2c(F)cccc2F)nn2cccnc12 [Example 44, 2-(2,6-Difluorophenyl)-N-[(3S)-9-fluoro-2-oxo-5-phenyl-1,3-dihydro-1,4-benzodiazepin-3-yl]pyrazolo[1,5-a]pyrimidine-3-carboxamide]",> 25000 nM,7.06,12.5 h,9.07 h,3.85 h
"CN1CC(Oc2ccc3nc(-c4ccccc4F)c(C(=O)N[C@H]4N=C(c5ccccc5)c5cccc(F)c5NC4=O)n3n2)C1 [Example 108, N-[(3S)-9-Fluoro-2-oxo-5-phenyl-1,3-dihydro-1,4-benzodiazepin-3-yl]-2-(2-fluorophenyl)-6-(1-methylazetidin-3-yl)oxyimidazo[1,2-b]pyridazine-3-carboxamide]",21900 nM,7.08,2.88 h,1.3 h,1.14 h
